Laboratory results taken from patent US10022374B2, “Certain protein kinase inhibitors” (Shanghai Fochon Pharmaceutical Co., Ltd., priority 2013, dated 2018).
Like-named read-outs stand apart in the source and are kept apart here.

Experiments:
A-375 cells = assay: Inhibition of cell proliferation (MTS), A-375 cells; format: cell-based; settings: Homo sapiens, A-375, 72 h
Method: (§1) MTS testing kit was purchased from Promega. The DMEM, RPMI-1640 and Fetal bovine serum were purchased from Gibco. Dimethyl sulfoxide (DMSO) was purchased from Sigma.
(§2) To investigate whether a compound is able to inhibit the activity of MEK in cells, a mechanism-based assay using A-375 and HT-29 cell was developed. In this assay, inhibition of MEK was detected by the inhibition of A-375 and HT-29 cells proliferation. A-375 and HT-29 cells were cultured in culture flasks to 40-80% confluence respectively in DMEM and RPMI-1640 plus 10% fetal bovine serum. Cells were collected and plated onto 96-well plates at desired cell density (A-375: 3000 cells/well; HT-29: 5000 cells/well). Plates were incubated overnight at 37° C., with 5% CO2 to adhere. Compounds were added to the plates. The final compound concentrations were […], 12.35, 4.12, 1.37, 0.46 and 0.15 nM, respectively. Place plates at 37° C., with 5% CO2 for 72 h. 10 μl MTS were added to each well and incubate the plates for exactly 2 hours. Absorbance was measured at 490 nm. […] was calculated using GraphPad Prism 5.0.

HT-29 cells = assay: Inhibition of cell proliferation (MTS), HT-29 cells; format: cell-based; settings: Homo sapiens, HT-29, 72 h
Method: as §1, §2

[1] = A-375 cells, 3000 cells/well, 72 h, MTS, absorbance 490 nm, read-out: A375 IC50
[2] = HT-29 cells, 5000 cells/well, 72 h, MTS, absorbance 490 nm, read-out: HT29 IC50

For CCC(=O)Nc1cccc(-c2nn(CC(O)CO)c(=O)c3c(Nc4ccc(I)cc4F)c(F)c(=O)n(C)c23)c1 (stereo not shown) [Example 41, N-(3-(6-(2,3-dihydroxypropyl)-3-fluoro-4-(2-fluoro-4-iodophenylamino)-1-methyl-2,5-dioxo-1,2,5,6-tetrahydropyrido[2,3-d]pyridazin-8-yl)phenyl)propionamide], the IC50 (A-375 cells; [1]) was 399 nM and the IC50 (HT-29 cells; [2]) was 315 nM.

Cn1c(=O)c(F)c(Nc2ccc(I)cc2F)c2c(=O)n(CC(O)CO)nc(-c3cccc(NC(=O)C4CC4)c3)c21 (stereo not shown) [Example 42, N-(3-(6-(2,3-dihydroxypropyl)-3-fluoro-4-(2-fluoro-4-iodophenylamino)-1-methyl-2,5-dioxo-1,2,5,6-tetrahydropyrido[2,3-d]pyridazin-8-yl)phenyl)cyclopropanecarboxamide] was tested, and the IC50 (A-375 cells; [1]) was 180 nM and the IC50 (HT-29 cells; [2]) was 112 nM.

Cn1c(=O)c(F)c(Nc2ccc(I)cc2F)c2c(=O)n(CC(O)CO)nc(-c3cccc(NS(C)(=O)=O)c3)c21 (stereo not shown) [Example 43, N-(3-(6-(2,3-dihydroxypropyl)-3-fluoro-4-(2-fluoro-4-iodophenylamino)-1-methyl-2,5-dioxo-1,2,5,6-tetrahydropyrido[2,3-d]pyridazin-8-yl)phenyl)methanesulfonamide] was tested, and the IC50 (A-375 cells; [1]) was 3.6 nM and the IC50 (HT-29 cells; [2]) was 4.6 nM.

With CCS(=O)(=O)Nc1cccc(-c2nn(CC(O)CO)c(=O)c3c(Nc4ccc(I)cc4F)c(F)c(=O)n(C)c23)c1 (stereo not shown) [Example 44, N-(3-(6-(2,3-dihydroxypropyl)-3-fluoro-4-(2-fluoro-4-iodophenylamino)-1-methyl-2,5-dioxo-1,2,5,6-tetrahydropyrido[2,3-d]pyridazin-8-yl)phenyl)ethanesulfonamide] the IC50 (A-375 cells; [1]) was 71.3 nM and the IC50 (HT-29 cells; [2]) was 57.7 nM.

CC(C)S(=O)(=O)Nc1cccc(-c2nn(CC(O)CO)c(=O)c3c(Nc4ccc(I)cc4F)c(F)c(=O)n(C)c23)c1 (stereo not shown) [Example 45, N-(3-(6-(2,3-dihydroxypropyl)-3-fluoro-4-(2-fluoro-4-iodophenylamino)-1-methyl-2,5-dioxo-1,2,5,6-tetrahydropyrido[2,3-d]pyridazin-8-yl)phenyl)propane-2-sulfonamide] was tested, and the IC50 (A-375 cells; [1]) was 9.8 nM and the IC50 (HT-29 cells; [2]) was 23.5 nM.

Compound Cn1c(=O)c(F)c(Nc2ccc(I)cc2F)c2c(=O)n(CC(O)CO)nc(-c3cccc(NS(=O)(=O)C4CC4)c3)c21 (stereo not shown) [Example 46, N-(3-(6-(2,3-dihydroxypropyl)-3-fluoro-4-(2-fluoro-4-iodophenylamino)-1-methyl-2,5-dioxo-1,2,5,6-tetrahydropyrido[2,3-d]pyridazin-8-yl)phenyl)cyclopropanesulfonamide] has an IC50 (A-375 cells; [1]) of 68.9 nM and an IC50 (HT-29 cells; [2]) of 24.2 nM.

CN(c1cccc(-c2nn(C3CC3)c(=O)c3c(Nc4ccc(I)cc4F)c(F)c(=O)n(C)c23)c1)S(C)(=O)=O [Example 47, N-(3-(6-cyclopropyl-3-fluoro-4-((2-fluoro-4-iodophenyl)amino)-1-methyl-2,5-dioxo-1,2,5,6-tetrahydropyrido[2,3-d]pyridazin-8-yl)phenyl)-N-methylmethanesulfonamide] was tested, and the IC50 (A-375 cells; [1]) was 4.9 nM and the IC50 (HT-29 cells; [2]) was 16.6 nM.

CC(C)S(=O)(=O)N(C)c1cccc(-c2nn(C3CC3)c(=O)c3c(Nc4ccc(I)cc4F)c(F)c(=O)n(C)c23)c1 [Example 48, N-(3-(6-cyclopropyl-3-fluoro-4-((2-fluoro-4-iodophenyl)amino)-1-methyl-2,5-dioxo-1,2,5,6-tetrahydropyrido[2,3-d]pyridazin-8-yl)phenyl)-N-methylpropane-2-sulfonamide] gave an IC50 (A-375 cells; [1]) of 3.4 nM and an IC50 (HT-29 cells; [2]) of 13.2 nM.

In the case of CN(c1cccc(-c2nn(C3CC3)c(=O)c3c(Nc4ccc(I)cc4F)c(F)c(=O)n(C)c23)c1)S(=O)(=O)C1CC1 [Example 49, N-(3-(6-cyclopropyl-3-fluoro-4-((2-fluoro-4-iodophenyl)amino)-1-methyl-2,5-dioxo-1,2,5,6-tetrahydropyrido[2,3-d]pyridazin-8-yl)phenyl)-N-methylcyclopropanesulfonamide], the IC50 (A-375 cells; [1]) is reported as 2.5 nM and the IC50 (HT-29 cells; [2]) is reported as 11.7 nM.

Compound CN(c1cccc(-c2nn(C)c(=O)c3c(Nc4ccc(I)cc4F)c(F)c(=O)n(C)c23)c1)S(C)(=O)=O [Example 50, N-(3-(3-fluoro-4-((2-fluoro-4-iodophenyl)amino)-1,6-dimethyl-2,5-dioxo-1,2,5,6-tetrahydropyrido[2,3-d]pyridazin-8-yl)phenyl)-N-methylmethanesulfonamide] has an IC50 (A-375 cells; [1]) of 1.5 nM and an IC50 (HT-29 cells; [2]) of 5.3 nM.

With CC(C)S(=O)(=O)N(C)c1cccc(-c2nn(C)c(=O)c3c(Nc4ccc(I)cc4F)c(F)c(=O)n(C)c23)c1 [Example 51, N-(3-(3-fluoro-4-((2-fluoro-4-iodophenyl)amino)-1,6-dimethyl-2,5-dioxo-1,2,5,6-tetrahydropyrido[2,3-d]pyridazin-8-yl)phenyl)-N-methylpropane-2-sulfonamide] the IC50 (A-375 cells; read-out: A375 IC50 (nM)) was 2.2 nM and the IC50 (HT-29 cells; read-out: HT29 IC50 (nM)) was 2 nM.

In the case of CN(c1cccc(-c2nn(C)c(=O)c3c(Nc4ccc(I)cc4F)c(F)c(=O)n(C)c23)c1)S(=O)(=O)C1CC1 [Example 52, N-(3-(3-fluoro-4-((2-fluoro-4-iodophenyl)amino)-1,6-dimethyl-2,5-dioxo-1,2,5,6-tetrahydropyrido[2,3-d]pyridazin-8-yl)phenyl)-N-methylcyclopropanesulfonamide], the IC50 (A-375 cells; [1]) is reported as 5.7 nM and the IC50 (HT-29 cells; [2]) is reported as 7.8 nM.

Cn1c(=O)c(F)c(Nc2ccc(I)cc2F)c2c(=O)n(C3CC3)nc(-c3cccc(N4CCCC4=O)c3)c21 [Example 53, 6-cyclopropyl-3-fluoro-4-((2-fluoro-4-iodophenyl)amino)-1-methyl-8-(3-(2-oxopyrrolidin-1-yl)phenyl)pyrido[2,3-d]pyridazine-2,5(1H,6H)-dione] showed an IC50 (A-375 cells; [1]) of 7.8 nM and an IC50 (HT-29 cells; [2]) of 19.1 nM.

Compound Cn1nc(-c2cccc(N3CCCC3=O)c2)c2c(c(Nc3ccc(I)cc3F)c(F)c(=O)n2C)c1=O [Example 54, 3-fluoro-4-((2-fluoro-4-iodophenyl)amino)-1,6-dimethyl-8-(3-(2-oxopyrrolidin-1-yl)phenyl)pyrido[2,3-d]pyridazine-2,5(1H,6H)-dione] has an IC50 (A-375 cells; read-out: A375 IC50 (nM)) of 4.7 nM and an IC50 (HT-29 cells; read-out: HT29 IC50 (nM)) of 7.9 nM.

Cn1c(=O)c(F)c(Nc2ccc(I)cc2F)c2c(=O)n(C3CC3)nc(-c3cccc(N4CCCS4(=O)=O)c3)c21 [Example 55, 6-cyclopropyl-8-(3-(1,1-dioxidoisothiazolidin-2-yl)phenyl)-3-fluoro-4-((2-fluoro-4-iodophenyl)amino)-1-methylpyrido[2,3-d]pyridazine-2,5(1H,6H)-dione] gave an IC50 (A-375 cells; [1]) of 8.8 nM and an IC50 (HT-29 cells; [2]) of 18.7 nM.

Cn1nc(-c2cccc(N3CCCS3(=O)=O)c2)c2c(c(Nc3ccc(I)cc3F)c(F)c(=O)n2C)c1=O [Example 56, 8-(3-(1,1-dioxidoisothiazolidin-2-yl)phenyl)-3-fluoro-4-((2-fluoro-4-iodophenyl)amino)-1,6-dimethylpyrido[2,3-d]pyridazine-2,5(1H,6H)-dione] showed an IC50 (A-375 cells; [1]) of 9.3 nM and an IC50 (HT-29 cells; [2]) of 14.1 nM.

With Cc1ccc(Nc2c(C)c(=O)n(C)c3c(C)n[nH]c(=O)c23)c(F)c1 [Reference Compound, 4-((2-fluoro-4-methylphenyl)amino)-1,3,8-trimethylpyrido[2,3-d]pyridazine-2,5(1H,6H)-dione, reference compound] the IC50 (A-375 cells; [1]) was > 1000 nM and the IC50 (HT-29 cells; [2]) was > 1000 nM.
